Experimental data from patent US20220098184A1, “SOLID DISPERSION FORMULATIONS OF AN FXR AGONIST” (Terms Pharmaceuticals, Inc., priority 2020, published 2022).

Legend:
[1] = BCS classification / aqueous solubility; assay type: physicochemical
[2] = Tissue distribution of Compound I (liver vs other tissues); assay type: in vivo; details: liver relative to plasma, kidney, lungs, heart, and skin, read-out: Concentration in the liver relative to other tissues
[3] = Solubility study in phosphate buffer (pH=6.8), agitated at 37° C., filtrate measured by UV-vis; assay type: physicochemical; details: phosphate buffer pH 6.8, 37° C.
Procedure: Compound I, Compound U/Kollidon® VA 64 solid dispersion prepared according to Example 1, and Compound U/Soluplus® solid dispersion prepared according to Example 1 were dissolved in phosphate buffer (pH=6.8) and the resulting mixtures were agitated at 37° C. Samples were taken at 15 minutes, 30 minutes, 60 minutes, 120 minutes, 4 hours, 8 hours, and 24 hours.

[4] = Phase 1 randomized, open-label study in healthy subjects (PK, safety and tolerability); assay type: in vivo, human; details: all treatment groups
Procedure: A Phase 1 randomized, open-label study was conducted in 16 healthy subjects. PK samples of Compound I were obtained up to 72 hours after single oral administration of: 1) 5-mg strength and 25-mg strength tablets (prepared according to Example 3) in 16 fasted subjects; 2) 25-mg strength capsule (containing 25 mg Compound I not in a solid dispersion) in 8 fasted subjects; and 3) 5-mg strength tablet (prepared according to Example 3) in 8 subjects after a high-fat, high calorie meal. Safety and tolerability of the tablets and capsule were also assessed.

Cn1cc(C(=O)O)c2ccc(N3CCC(OCc4c(-c5c(Cl)cccc5Cl)noc4C4CC4)CC3)cc21 [Compound I, 6-(4-((5-cyclopropyl-3-(2,6-dichlorophenyl)isoxazol-4-yl)methoxy)piperidin-1-yl)-1-methyl-1H-indole-3-carboxylic acid]
Aqueous solubility (in words) [1]: low aqueous solubility
BCS class [1]: BCS class II
Kp [2]: ~20
Solubility in phosphate buffer (in words) [3]: low solubility
Concentration of Compound I ([3]; 15 min): 0.086 µg/mL
Concentration of Compound I ([3]; 30 min): 0.166 µg/mL
Concentration of Compound I ([3]; 60 min): 0.172 µg/mL
Concentration of Compound I ([3]; 120 min): 0.188 µg/mL
Concentration of Compound I ([3]; 4 hrs): 0.166 µg/mL
Concentration of Compound I ([3]; 8 hrs): 0.207 µg/mL
Concentration of Compound I ([3]; 24 hrs): 0.250 µg/mL
Safety and tolerability [4]: safe and well tolerated
